For experiment [1], the target named is T1, BaIMPDH (Bacillus anthracis, UniProt A0A6L8P2U9). Briefly: biochemical. Type of experiment: biochemical.
The next experiment concerns the target CpIMPDH (Cryptosporidium parvum, UniProt Q8T6T2). Description: biochemical. Type of experiment: biochemical.
Experiment [2] has as its target T2, CjIMPDH (Campylobacter jejuni, UniProt Q0P9J4). Description: biochemical. Type of experiment: biochemical.
Another experiment concerns the target TfIMPDH (Tritrichomonas foetus, UniProt P50097). Briefly: biochemical. It is filed as biochemical.
The next experiment has as its target human IMPDH2 (Homo sapiens, UniProt P12268). Briefly: IMPDH steady-state kinetics and inhibition. Type of experiment: biochemical.
The target of experiment [3] is T1, BaIMPDH. It is filed as biochemical.
In experiment [4] the target is T2, CjIMPDH. Briefly: Product determination and stoichiometry of inhibition. Type of experiment: biochemical.
Experiment [5] deals with T1, BaIMPDH. Type of experiment: biochemical. The source holds these as a separate data set.
Experiment [6] has as its target T1, BaIMPDH. It is filed as binding. To be noted: read-out: calculated value of Ki.
Experiment [7] addresses partially purified rat IMPDH. As to conditions: mixed inhibition; cited from earlier work.
The target in experiment [8] is CjIMPDHΔS (IMPDH from C. jejuni, CBS domain V92-T195 deleted and replaced with G) (Campylobacter jejuni) (UniProt Q0P9J4). Briefly: crystal structure.
Setting [9] is: read-out: Km, NAD, varying NAD+, saturating IMP, 25 °C, pH 8.
The mark [10] stands for this setting: uncompetitive substrate inhibition by NAD+.
The mark [11] stands for this setting: read-out: Kis, OxMP, versus IMP, competitive, NAD+ 500 μM.

Like-named read-outs stand apart in the source and are kept apart here.

Sequence of CpIMPDH (Q8T6T2 whole entry): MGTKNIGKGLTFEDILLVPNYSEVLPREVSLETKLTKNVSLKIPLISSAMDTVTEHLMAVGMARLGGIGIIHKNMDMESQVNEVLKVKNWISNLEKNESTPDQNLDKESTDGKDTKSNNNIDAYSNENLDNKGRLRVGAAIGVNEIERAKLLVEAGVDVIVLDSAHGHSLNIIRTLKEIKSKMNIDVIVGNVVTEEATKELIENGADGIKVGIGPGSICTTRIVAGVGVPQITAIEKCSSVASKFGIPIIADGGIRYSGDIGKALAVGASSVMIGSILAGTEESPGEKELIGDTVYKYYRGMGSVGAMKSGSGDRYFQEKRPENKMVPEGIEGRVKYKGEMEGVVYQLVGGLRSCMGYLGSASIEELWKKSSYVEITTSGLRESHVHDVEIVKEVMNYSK
Sequence of TfIMPDH (P50097 whole entry): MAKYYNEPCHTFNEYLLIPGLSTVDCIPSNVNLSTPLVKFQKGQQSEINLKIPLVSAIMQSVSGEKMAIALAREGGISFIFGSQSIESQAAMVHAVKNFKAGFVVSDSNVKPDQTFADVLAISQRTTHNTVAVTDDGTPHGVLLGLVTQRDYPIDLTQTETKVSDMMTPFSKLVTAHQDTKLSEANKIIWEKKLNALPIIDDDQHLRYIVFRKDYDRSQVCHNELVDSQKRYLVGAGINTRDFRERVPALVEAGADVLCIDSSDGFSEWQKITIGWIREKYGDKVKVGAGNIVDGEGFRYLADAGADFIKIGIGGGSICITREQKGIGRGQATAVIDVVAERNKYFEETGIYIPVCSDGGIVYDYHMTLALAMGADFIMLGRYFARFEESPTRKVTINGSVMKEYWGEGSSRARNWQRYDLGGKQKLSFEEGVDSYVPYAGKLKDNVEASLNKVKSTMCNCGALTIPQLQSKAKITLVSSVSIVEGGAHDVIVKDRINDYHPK
T1 sequence (A0A6L8P2U9 1-487): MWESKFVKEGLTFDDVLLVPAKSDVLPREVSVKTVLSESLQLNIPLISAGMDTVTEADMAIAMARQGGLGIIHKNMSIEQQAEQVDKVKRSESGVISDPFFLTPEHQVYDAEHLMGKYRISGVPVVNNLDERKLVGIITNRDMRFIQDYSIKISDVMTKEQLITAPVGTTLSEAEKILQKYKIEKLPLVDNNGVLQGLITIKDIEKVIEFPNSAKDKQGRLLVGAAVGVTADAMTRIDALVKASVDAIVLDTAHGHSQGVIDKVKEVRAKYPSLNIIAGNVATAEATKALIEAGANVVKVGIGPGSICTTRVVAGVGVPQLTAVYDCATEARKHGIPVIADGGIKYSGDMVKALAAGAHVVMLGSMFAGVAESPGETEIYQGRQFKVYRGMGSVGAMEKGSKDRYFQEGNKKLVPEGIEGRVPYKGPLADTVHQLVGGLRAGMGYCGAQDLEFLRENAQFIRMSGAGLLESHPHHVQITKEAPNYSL

Turning to `Nc1nc2c(ncn2[C@@H]2O[C@H](COP(=O)(O)O)[C@@H](O)[C@H]2O)c(=O)[nH]1` [GMP, guanosine 5’-monophosphate, reference compound], the Ki at BaIMPDH [1] came out at 115000 ± 7000 nM; at CpIMPDH, 21000 ± 1000 nM; at CjIMPDH [2] it was 8000 ± 900 nM; at TfIMPDH it was 24000 ± 2000 nM.
With `NC(=O)c1ccc[n+]([C@@H]2O[C@H](COP(=O)([O-])OP(=O)(O)OC[C@H]3O[C@@H](n4cnc5c(N)ncnc54)[C@H](O)[C@@H]3O)[C@@H](O)[C@H]2O)c1` [NAD], the “Kii, NAD” value at BaIMPDH [1] is listed as 8.1 ± 0.5 mM; at human IMPDH2 (setting [10]), 0.49 ± 0.12 mM; on CpIMPDH (setting [10]), 6.5 ± 0.5 mM; at CjIMPDH [2] (setting [10]), 4.1 ± 0.3 mM; at TfIMPDH (setting [10]) it was 5.4 ± 0.3 mM. In addition, the Km on BaIMPDH [1] (read-out: Km, NAD, pH 8) is 700 ± 40 µM; at human IMPDH2 (setting [9]), 7 ± 1.7 µM; on CpIMPDH (setting [9]) it was 45 ± 3 µM; on CjIMPDH [2] (setting [9]), 66 ± 5 µM; at TfIMPDH (setting [9]) it was 80 ± 3 µM.
Take `Nc1nc2c(ncn2[C@@H]2O[C@H](COP(=O)(O)O)[C@@H](O)[C@H]2O)c(=O)o1` [OxMP, oxanosine monophosphate]: the “Kis, GMP /Kis, OxMP” value on BaIMPDH [1] is on record as 340; at human IMPDH2 (ratio of Kis values), 280; on CpIMPDH (ratio of Kis values), 240; at CjIMPDH [2] (ratio of Kis values), 160; at TfIMPDH (ratio of Kis values) it was 140. For the same molecule, the Ki at BaIMPDH [1] (read-out: Kis, OxMP) was 340 ± 50 nM; at human IMPDH2 (setting [11]), 130 ± 20 nM; at CpIMPDH (setting [11]), 90 ± 10 nM; at BaIMPDH [6] it was 330 nM; on CjIMPDH [2] (setting [11]), 51 ± 6 nM; in experiment [7], 1000 to 5000 nM. In addition, on TfIMPDH (setting [11]), the Ki turned out to be 170 ± 20 nM. Also, the “dissociation rate constant koff” value at BaIMPDH [3] is 0.0019 s⁻¹. The “hydrolysis of OxMP to UrMP by the enzyme” value is “no free UrMP was detected” at CjIMPDH [4] (enzyme and OxMP in a 1:1 ratio for 4 h, LC-MS); “no free UrMP was detected” on BaIMPDH [5]. The stoichiometry of inhibition at CjIMPDH [4] (incubated 5 min, initial rates) came to 1 OxMP/active site; at BaIMPDH [5] it was 1 OxMP/active site.
In the case of “CjIMPDHΔS (IMPDH from C. jejuni, CBS domain V92-T195 deleted and replaced with G) (from UniProt Q0P9J4) (enzyme)”, in experiment [8], the stoichiometry N amounted to 4.

In general, Km refers to the substrate concentration at which the rate is half of its maximum. By stoichiometry N is commonly meant a count of units in the complex or per binding partner.
